Patent publication US10278396B2, “Synergistic Bacillus thuringiensis subsp. kurstaki and cyantraniliprole mixtures for diamondback moth, beet armyworm, sugarcane borer, and soybean looper control” (priority 2016, dated 2019)
Like-named read-outs stand apart in the source and are kept apart here.

Key:
[1] = system: corn earworm larvae; test: leaf dip test, corn earworm larvae; assay type: in vivo; conditions: Helicoverpa zea, foliar, Btk 0.54 ppm, cyantraniliprole 10.0 ppm, mixture 0.54 ppm + 10.0 ppm, read-out: % Efficacy
Description: (§1) For these tests, standardized laboratory leaf dip methods were used to inoculate plant material with treatment(s). Dry, treated leaves were placed into Petri dishes (100×25 mm) containing filter paper wetted with 500 μl of distilled H2O (“dH2O”). Each dish was then infested with between 5 and 10 larvae, dependent on species. Efficacy ratings were taken at specified intervals. Synergy ratings were calculated for each test.
(§2) % Cexp=A+B−(AB/100), where % Cexp is the expected efficacy and “in which A and B are the control levels given by the single [insecticides]. If the ratio between the experimentally observed efficacy of the mixture Cobs and the expected efficacy of the mixture is greater than 1, synergistic interactions are present in the mixture.” (Gisi, Synergisitic Interaction of Fungicides in Mixtures, The American Phytopathological Society, 86:11, 1273-1279, 1996). Adopting a conservative approach, Applicant determined synergy to be present at ratios of ≥1.15.
In this study, the response of corn earworm larvae to Bacillus thuringiensis subsp. kurstaki and cyantraniliprole was observed.
Bacillus thuringiensis subsp. kurstaki was applied at a concentration of 0.54 ppm (0.54 μg/ml). Cyantraniliprole was applied at a concentration of 10.0 ppm (10.0 μg/ml). […]

[2] = system: cabbage looper larvae; test: leaf dip test, cabbage looper larvae; assay type: in vivo; conditions: Trichoplusia ni, foliar, Btk 0.54 ppm, cyantraniliprole 0.50 ppm, mixture 0.54 ppm + 0.50 ppm, read-out: % Efficacy
Description: as §1, §2
In this study, the response of cabbage looper larvae to Bacillus thuringiensis subsp. kurstaki and cyantraniliprole was observed.
Bacillus thuringiensis subsp. kurstaki was applied at a concentration of 0.54 ppm (0.54 μg/ml). Cyantraniliprole was applied at a concentration of 0.50 ppm (0.50 μg/ml). […]

[3] = system: soybean looper larvae; test: leaf dip test, soybean looper larvae; assay type: in vivo, Chrysodeixis includens; conditions: foliar, Btk 0.54 ppm, cyantraniliprole 1.0 ppm, mixture 0.54 ppm + 1.0 ppm, read-out: % Efficacy
Description: as §1, §2
In this study, the response of soybean looper larvae to synergistic amounts of Bacillus thuringiensis subsp. kurstaki and cyantraniliprole was observed.
(§3) Bacillus thuringiensis subsp. kurstaki was applied at a concentration of 0.54 ppm (0.54 μg/ml). Cyantraniliprole was applied at a concentration of 1.0 ppm (1.0 μg/ml). […]

[4] = system: southwestern corn borer larvae; test: leaf dip test, southwestern corn borer larvae; assay type: in vivo, Diatraea grandiosella; conditions: foliar, Btk 0.54 ppm, cyantraniliprole 0.1 ppm, mixture 0.54 ppm + 0.1 ppm, read-out: % Efficacy
Description: as §1, §2
In this study, the response of southwestern corn borer larvae to Bacillus thuringiensis subsp. kurstaki and cyantraniliprole was observed.
Bacillus thuringiensis subsp. kurstaki was applied at a concentration of 0.54 ppm (0.54 μg/ml). Cyantraniliprole was applied at a concentration of 0.1 ppm (0.1 μg/ml). […]

[5] = system: sugarcane borer larvae; test: leaf dip test, sugarcane borer larvae; assay type: in vivo; conditions: Diatraea saccharalis, foliar, Btk 0.54 ppm, cyantraniliprole 1.0 ppm, mixture 0.54 ppm + 1.0 ppm, read-out: % Efficacy
Description: as §1, §2
In this study, the response of sugarcane borer larvae to synergistic amounts of Bacillus thuringiensis subsp. kurstaki and cyantraniliprole was observed.
as §3

[6] = system: beet armyworm larvae; test: leaf dip test, beet armyworm larvae; assay type: in vivo; conditions: Spodoptera exigua, foliar, Btk 0.54 ppm, cyantraniliprole 1.0 ppm, mixture 0.54 ppm + 1.0 ppm, read-out: % Efficacy
Description: as §1, §2
In this study, the response of beet armyworm larvae to synergistic amounts of Bacillus thuringiensis subsp. kurstaki and cyantraniliprole was observed.
as §3

[7] = system: diamondback moth larvae; test: leaf dip test, diamondback moth larvae; assay type: in vivo; conditions: Plutella xylostella, foliar, Btk 0.54 ppm, cyantraniliprole 0.1 ppm, mixture 0.54 ppm + 0.1 ppm, read-out: % Efficacy
Description: as §1
In this study, the response of diamondback moth larvae to synergistic amounts of Bacillus thuringiensis subsp. kurstaki (“Btk”) and cyantraniliprole was observed.
% Cexp=A+B−(AB/100), where % Cexp is the expected efficacy and “in which A and B are the control levels given by the single [insecticides]. […] Adopting a conservative approach, Applicant determined synergy to be present at ratios of ≥1.15. […]
In order to determine synergy, rates below normal field rate ranges must be used. If normal field rate ranges are used, all of the larvae would die (combining a lethal or near lethal dose of Bacillus thuringiensis subsp. kurstaki with a lethal dose of cyantraniliprole would most likely lead to larvae death) in every treatment and synergy would not be able to be determined. […]

For `CNC(=O)c1cc(C#N)cc(C)c1NC(=O)c1cc(Br)nn1-c1ncccc1Cl` [Cyantraniliprole, 3-Bromo-1-(3-chloro-2-pyridinyl)-N-[4-cyano-2-methyl-6-(methylcarbamoyl)phenyl]-1H-pyrazole-5-carboxamide], the Emax at 10 ppm ([1]; 24 h after treatment) was 29%, the Emax at 10 ppm ([1]; 48 h after treatment) was 33% and the Emax at 0.5 ppm ([2]; 24 h after treatment) was 15%. It also gave an Emax at 0.5 ppm ([2]; 48 h after treatment) of 51%, an Emax at 1 ppm ([3]; 24 h after treatment) of 6% and an Emax at 1 ppm ([3]; 48 h after treatment) of 10%. The Emax at 0.1 ppm ([4]; 24 h after treatment) was 23%, the Emax at 0.1 ppm ([4]; 48 h after treatment) was 39% and the Emax at 1 ppm ([5]; 24 h after treatment) was 30%. For the same molecule, the Emax at 1 ppm ([5]; 48 h after treatment) was 32%, the Emax at 1 ppm ([6]; 24 h after treatment) was 20% and the Emax at 1 ppm ([6]; 48 h after treatment) was 37%. It also gave an Emax at 0.1 ppm ([7]; 24 h after treatment) of 16% and an Emax at 0.1 ppm ([7]; 48 h after treatment) of 47%.
